The assay deals with HCV NS5B polymerase. The assay is described as follows: Testing of GTP analogs in the NS5B de novo initiation reaction with RNA template 24-1. Type of assay: biochemical, hepatitis C virus. As to conditions: analog at 500 μM added to reactions with 100 μM or 500 μM GTP, 5 nM NS5B, 10 nM template 24-1, 2.5 h. The protocol:
Unless indicated otherwise, the standard reactions that incorporated [α-^33P]UTP contained 5 nM of purified NS5B and 10-50 nM of the indicated RNA template (i.e.: 24, 24-1, 128-4, 130-21, 150-41 or mutant templates) incubated at 22° C. for 2.5 h in 22.5 mM Tris-HCl pH 7.5, 5 mM MgCl2, 1 mM EDTA, 1.5 mM DTT, 30 mM NaCl, 0.33% N-Dodecyl-β-D-Maltoside, 0.01% Igepal CA-630, 5% DMSO, 5 μCi [α-^33P]UTP, 10 μM UTP, 500 μM of the three other rNTPs and 0.16 U/μl RNase inhibitor (Promega). NS5B polymerase reactions that incorporated γ-^32P into the radioactively labeled 5′product were supplemented with either 8 μCi of [γ-^32P]GTP or [γ-^32P]ATP in place of [α-^33P]UTP in the standard reaction. The reactions were then supplemented with PK buffer (50 mM Tris HCl pH 7.5 150 mM NaCl, 0.5% SDS) and treated with Proteinase K (0.8 μg /μl) and glycogen (0.1 μg/μl) for 30 min at 37° C. RNA was extracted with phenol-chloroform and precipitated with isopropanol. The RNA pellet was dissolved in 10-15 μl of denaturing solution (80% formamide, 10 mM EDTA), heated for 10 min at 70-75° C. and analysed on denaturing 8 M urea/5% polyacrylamide gels. Gels were dried and radioactive products visualized with a phospho-imager (Molecular Dynamics).
m7GpppG and GpppG were purchased from Ambion; Ribavirin monophosphate and Ribavirin triphosphate were purchased from Chemgenes (Ashland, Mass.); ddGTP was from Amersham; Caged GTP was from Molecular Probes. All other GTP analogs were from Sigma/Aldrich. Each of the analogs was added (at 500 μM) to the NS5B polymerization reaction containing either: 100 μM or 500 μM GTP (reference reactions). Stimulation by GTP itself, as a positive control, was performed such that the reactions then contained 600 μM or 1 mM GTP (respectively labeled as the +500 μM GTP bars). The standard polymerase reactions incorporating [α-^33P]UTP were incubated for 2.5 h in the presence of 5 nM NS5B and 10 nM of RNA template 24-1. The reactions were stopped by spotting 8 μl on a DE81 filters which were then washed extensively (3×) with 1M NaPO4 pH 7 and dried. The radioactivity incorporated into product RNA that was retained on the DE-81 filters was measured in a scintillation counter. The effect of the various analogs on the reaction is represented by the fold stimulation of activity compared to 100μM or 500μM GTP (reference reaction bars). 5′-p-FSBA=5′-p-fluorosulfonyl-benzoyladenosine

Entries after “also recorded” stand apart in the source; their conditions may differ.

With `Nc1nc2c(ncn2[C@@H]2O[C@H](COP(=O)(O)O)[C@@H](O)[C@H]2O)c(=O)[nH]1` [GMP], the “effect on de novo initiation reaction (fold stimulation relative to GTP alone)” value was “stimulating”.
Turning to `Nc1nc2c(ncn2C(C=O)OC(C=O)COP(=O)(O)OP(=O)(O)OP(=O)(O)O)c(=O)[nH]1.[Na]` (stereo not drawn) [GTP 2′3′-dialdehyde], the “effect on de novo initiation reaction (fold stimulation relative to GTP alone)” value is reported as “clear inhibitor; also recorded: inhibiting”. The “effect on de novo initiation reaction (fold stimulation relative to GTP alone)” value (listed as GTP 2′3′dialdehyde) is on record as “inhibitory”.
In the case of `Nc1nc2c(ncn2[C@@H]2O[C@H](COP(=O)(O)OP(=O)(O)OP(=O)(O)O)[C@@H](O)[C@H]2O)c(=O)[nH]1` [GTP], the “effect on de novo initiation reaction (fold stimulation relative to GTP alone)” value is given as “activation”.
Turning to `Nc1nc2c(ncn2[C@@H]2O[C@H](COP(=O)(O)OP(=O)(O)OP(=O)(O)OC[C@H]3O[C@@H](n4cnc5c(=O)[nH]c(N)nc54)[C@H](O)[C@@H]3O)[C@@H](O)[C@H]2O)c(=O)[nH]1` [GpppG], the “effect on de novo initiation reaction (fold stimulation relative to GTP alone)” value is given as “most efficient analogs in stimulating de novo initiation; also recorded: stimulating; also recorded: stimulate”.
As to `CC(OP(=O)(O)OP(=O)(O)OP(=O)(O)OC[C@H]1O[C@@H](n2cnc3c(=O)[nH]c(N)nc32)[C@H](O)[C@@H]1O)c1ccccc1[N+](=O)[O-]` (stereo partly drawn) [caged-GTP], the “effect on de novo initiation reaction (fold stimulation relative to GTP alone)” value is “stimulating”.
As for `Nc1nc2c(ncn2[C@@H]2O[C@H](CO)[C@@H](O)[C@H]2O)c(=O)[nH]1` [guanosine], the “effect on de novo initiation reaction (fold stimulation relative to GTP alone)” value is “stimulating; also recorded: stimulate”.
`Cn1c[n+]([C@@H]2O[C@H](COP(=O)(O)OP(=O)([O-])OP(=O)(O)OC[C@H]3O[C@@H](n4cnc5c(=O)[nH]c(N)nc54)[C@H](O)[C@@H]3O)[C@@H](O)[C@H]2O)c2nc(N)[nH]c(=O)c21` [m7 GpppG, 7-methyl GpppG]: the “effect on de novo initiation reaction (fold stimulation relative to GTP alone)” value was “most efficient analogs in stimulating de novo initiation”. Moreover, the “effect on de novo initiation reaction (fold stimulation relative to GTP alone)” value (listed as 7-methyl GpppG) is reported as “stimulating; also recorded: stimulate”.
With `NC(=O)c1ncn([C@@H]2O[C@H](CO[P@@](=O)(O)O[P@](=O)(O)OP(=O)(O)O)[C@@H](O)[C@H]2O)n1` [ribavirin tri-phosphate, Ribavirin triphosphate], the “effect on de novo initiation reaction (fold stimulation relative to GTP alone)” value is listed as “moderate level of inhibition”. In addition, the “effect on de novo initiation reaction (fold stimulation relative to GTP alone)” value (listed as ribavirin triphosphate) was “inhibiting; also recorded: inhibitory”.
Consider GDP-γ-S, for which the “effect on de novo initiation reaction (fold stimulation relative to GTP alone)” value is reported as “stimulating”.

These data come from US20010055756A1, “Internal de novo initiation sites of the HCV NS5B polymerase and use thereof” (priority 2000, published 2001).
